From patent US20200237731A1, “USE OF CLOXACILLIN TO INHIBIT/PREVENT BIOFILM FORMATION” (priority 2017, published 2020)
Converted amounts (≈) assume the structure as drawn. “And” between values parts separate entries of the source, which are not always exact repeats. Identical values can stand only once. “Also recorded” adds a separate entry of the source. Like-named read-outs stand apart in the source and are kept apart here.

Experiments:
Type in all cases: cell-based
[1] = system: clinical strains of Staphylococcus aureus; experiment: MIC of cloxacillin by growth (absorbance) in 96-well microplates, brain heart infusion (BHI) medium
Procedure: (§1) The determination of each minimum inhibitory concentration (MIC) of cloxacillin was measured conventionally by measuring the growth of each strain in 96-well microplates in the presence of concentrations of antibiotic by absorbance.
The MIC was measured in Mueller-Hinton medium (MH; reference medium for antibiotic susceptibility testing) and brain heart infusion (BHI) medium.

[2] = system: clinical strains of Staphylococcus aureus; experiment: Antibiofilmogram / BioFilm Ring Test: biofilm minimum inhibitory concentration (MICb); conditions: for MIC: Staphylococcus aureus; for MIC / MIC b: 4 h, BHI medium
Procedure: To determine and measure the effect of cloxacillin on biofilm formation, specifically bacterial adhesion, the first step in biofilm formation, Staphylococcus aureus strains S14 and S39 were incubated in the wells of a 96-well microplate in the presence of varying concentrations of cloxacillin. The concentrations tested ranged from 0.25 μg/mL to 32 μg/mL cloxacillin. This test is called, by BioFilm Control, an Antibiofilmogram®. The inoculum of bacteria was 4·10^6 bacteria/mL, in 200 μL brain heart infusion (BHI) medium, in the presence of magnetic microbeads (Toner 4, product code TON004) at a concentration of 2 μL per 200 μL, i.e. 10 μL/mL).
The microplate was incubated for 4 hat 37° C., then covered with 120 μL of contrast liquid (Contrast liquid; product code LIC001) and placed for 1 minute on a magnet block (product code BKTMB) designed so that each mini-magnet is centered with respect to the 96 wells. The microplate was then placed on a scanner and the image was acquired and analyzed by the BFCE3 software which quantifies the aggregation of the magnetic microbeads in the center of the wells and provides a biofilm formation index (BFI) value. A BFI value of 20, or close to 20 corresponds to maximum aggregation, therefore no biofilm formation, and therefore cloxacillin anti-adhesion efficacy. […] All intermediate values, allowing a quantitative measurement of the efficacy of cloxacillin are possible.
The experimental procedure and protocol were as described above.
The measurement of the MICb (determination of the biofilm minimum inhibitory concentration), using the BioFilm Ring ^Test® was performed in BHI medium. The conversion in mg/kg. The results are summarized in Table 1 according to the strains tested.

[3] = system: Staphylococcus aureus strains S14 and S39; experiment: Confocal microscopy of bacterial adhesion to polystyrene well bottom; conditions: for effect on adhesion / biofilm formation / effect on bacterial adhesion: 4 h; for effect on bacterial adhesion: strain S39
Procedure: Six-well polystyrene microplates of the same nature and with exactly the same properties as the microplates used in Example 1 (Antibiofilmogram®), i.e. Costar 6-well microplates, product code 3736. The 6-well microplates were used to obtain a sufficient surface area of biofilm formation for confocal microscopy observation. The concentrations corresponding to the MIC and MICb of the strains were tested. At the same time, controls in the absence of antibiotics, strains S14 and S39 were performed. After incubation for 4 h at 37° C. (similar to the conditions used in Example 1 (Antibiofilmogram®), the bottoms of the microplates were cut out and assembled with a glass slide in order to be able to proceed to the observation under confocal microscopy. The observation conditions were as follows: Objective: ×40; Zoom: ×2; Format: 2048×2048 pixels; Laser power; Zmax and Zmin: number of images in the stack; Size between each image: 0.42 μm. “Live/Dead” staining was performed. SYTO9 stains live (and dead) bacteria, while propidium iodide specifically stains dead bacteria. The result was obtained with an analysis of 2880 images (“Slices”).
The percentage of biofilm covering the bottom surface of the well bottom as a percentage of surface cover is shown on the vertical axis. In FIG. 2A, the density of S14 bacteria adhered to the bottom of the wells was shown and analyzed. […] In particular, from 10% to more than 20% of the bottom surface of the well was covered after 4 h of incubation, which is excessive to consider a use in a therapeutic treatment at this dose.

[4] = system: Staphylococcus aureus strains S14 and S39; experiment: MIC of cloxacillin (medium not stated); conditions: for MIC: Staphylococcus aureus
Procedure: as §1

For `Cc1onc(-c2ccccc2Cl)c1C(=O)N[C@@H]1C(=O)N2[C@@H]1SC(C)(C)[C@@H]2C(=O)O` [cloxacillin], the MIC ([1]; strain S02) was 0.25 µg/mL, the MIC ([1]; strain S04) was 0.5 µg/mL and the MIC ([1]; strain S08) was 0.5 µg/mL. It also gave an MIC ([1]; strain S11) of 0.5 µg/mL, an MIC ([1]; strain S14) of 0.25 µg/mL and an MIC ([1]; strain S16) of 0.5 µg/mL. The MIC ([1]; strain S19) was 0.5 µg/mL, the MIC ([1]; strain S21) was 0.5 µg/mL and the MIC ([1]; strain S22) was 0.5 µg/mL. It also gave an MIC ([1]; strain S26) of 0.25 µg/mL, an MIC ([1]; strain S27) of 0.25 µg/mL and an MIC ([1]; strain S31) of 0.5 µg/mL. For the same compound, the MIC ([1]; strain S34) was 0.5 µg/mL, the MIC ([1]; strain S38) was 0.5 µg/mL and the MIC ([1]; strain S39) was 0.125 µg/mL. It also gave an MIC ([1]; strain S40) of 0.5 µg/mL, an MIC ([1]; strain S43) of 0.25 µg/mL and an MIC ([1]; strain S44) of 0.5 µg/mL. For the same compound, the MIC ([1]; strain S46) was 0.125 µg/mL, the MIC ([1]; strain S47) was 0.25 µg/mL and the MIC ([1]; strain S51) was 0.25 µg/mL. For the same compound, the MIC ([1]; strain S58) was 0.25 µg/mL, the MIC ([1]; strain S62) was 0.5 µg/mL and the MIC ([1]; strain S63) was 0.25 µg/mL. For the same compound, the MIC ([1]; strain S74) was 0.25 µg/mL, the MIC ([1]; strain S83) was 0.125 µg/mL and the MIC ([2]; strain S02) was 2 µg/mL (≈ 4.59 µM). It also gave an MIC ([2]; strain S04) of 4 µg/mL (≈ 9.18 µM), an MIC ([2]; strain S08) of 2 µg/mL (≈ 4.59 µM) and an MIC ([2]; strain S11) of 4 µg/mL (≈ 9.18 µM). The MIC ([2]; strain S14) was 2 µg/mL (≈ 4.59 µM), the MIC ([2]; strain S16) was 4 µg/mL (≈ 9.18 µM) and the MIC ([2]; strain S19) was 2 µg/mL (≈ 4.59 µM). For the same compound, the MIC ([2]; strain S21) was 4 µg/mL (≈ 9.18 µM), the MIC ([2]; strain S22) was 4 µg/mL (≈ 9.18 µM) and the MIC ([2]; strain S26) was 4 µg/mL (≈ 9.18 µM). For the same compound, the MIC ([2]; strain S27) was 4 µg/mL (≈ 9.18 µM), the MIC ([2]; strain S31) was 4 µg/mL (≈ 9.18 µM) and the MIC ([2]; strain S34) was 8 µg/mL (≈ 18.4 µM). It also gave an MIC ([2]; strain S38) of 16 µg/mL (≈ 36.7 µM), an MIC ([2]; strain S39) of 8 µg/mL (≈ 18.4 µM) and an MIC ([2]; strain S40) of 4 µg/mL (≈ 9.18 µM). It also gave an MIC ([2]; strain S43) of 4 µg/mL (≈ 9.18 µM), an MIC ([2]; strain S44) of 4 µg/mL (≈ 9.18 µM) and an MIC ([2]; strain S46) of 2 µg/mL (≈ 4.59 µM). For the same compound, the MIC ([2]; strain S47) was 2 µg/mL (≈ 4.59 µM), the MIC ([2]; strain S51) was 4 µg/mL (≈ 9.18 µM) and the MIC ([2]; strain S58) was 16 µg/mL (≈ 36.7 µM). For the same compound, the MIC ([2]; strain S62) was 8 µg/mL (≈ 18.4 µM), the MIC ([2]; strain S63) was 8 µg/mL (≈ 18.4 µM) and the MIC ([2]; strain S74) was 4 µg/mL (≈ 9.18 µM). The MIC ([2]; strain S83) was 16 µg/mL (≈ 36.7 µM), the “mean MICb” value ([2]; panel of 26 strains, standard deviation 4.2 μg/mL) was 5.5 µg/mL and the MIC b ([2]; strain S02) was 2 µg/mL (≈ 4.59 µM). For the same compound, the MIC b ([2]; strain S14) was 2 µg/mL (≈ 4.59 µM), the MIC b ([2]; strain S38) was 16 µg/mL (≈ 36.7 µM) and the MIC b ([2]; strain S39) was 6 µg/mL and 4 to 6 µg/mL and 4 µg/mL. For the same compound, the MIC b ([2]; strain S58) was 16 µg/mL (≈ 36.7 µM), the MIC b ([2]; strain S83) was 16 µg/mL (≈ 36.7 µM) and the “effect on adhesion / biofilm formation” value ([3]; strain S14, MIC dose (0.25 μg/mL)) was “allows a decrease in bacterial adhesion but does not inhibit it; also recorded: did not inhibit the adhesion”. For the same compound, the “bottom surface of the well covered by bacteria” value ([3]; strain S14, MIC dose (0.25 μg/mL), 4 h incubation) was 10%, the “effect on adhesion / biofilm formation” value ([3]; strain S14, MICb dose (2 μg/mL)) was “completely inhibit the adhesion” and the “effect on adhesion / biofilm formation” value ([3]; strain S14, sub-MIC dose (0.125 μg/mL, 0.5 MIC)) was “no effect on biofilm formation; also recorded: did not inhibit the adhesion”. The “effect on adhesion / biofilm formation” value ([3]; strain S14, sub-MICb dose (1 μg/mL)) was “completely inhibit the adhesion”, the “effect on bacterial adhesion” value ([3]; MIC dose (0.125 μg/mL)) was “no effect on bacterial adhesion” and the “effect on bacterial adhesion” value ([3]; MICb dose (6 μg/mL)) was “completely inhibit the adhesion”. For the same compound, the “effect on bacterial adhesion” value ([3]; sub-MIC dose (1/2 MIC)) was “no effect on bacterial adhesion”, the “effect on bacterial adhesion” value ([3]; sub-MICb dose (3 μg/mL)) was “completely inhibit the adhesion” and the MIC ([4]; strain S14, read-out: minimum inhibitory concentration (MIC)) was 0.25 µg/mL. The MIC ([4]; strain S39, read-out: minimum inhibitory concentration (MIC)) was 0.125 µg/mL, the “minimum inhibitory concentration (MIC)” value ([4]; strain S14) was 0.125 µg/mL and the “minimum inhibitory concentration (MIC)” value ([4]; strain S39) was 0.25 µg/mL.
